US11247965B2 (VenatoRx Pharmaceuticals, Inc., priority 2017, dated 2022)

Key:
[1] = In vitro cytotoxicity, MTT cell viability assay in HepG2 cells; assay type: cell-based; conditions: human, Cytotoxicity CC50
Method in brief: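 Using MTT conversion as the viability measure, HepG2 cells were incubated with compounds for 7 days (30 μM to 1.0 nM). Absorbance at 492 nm was normalized to vehicle and fitted to give CC50.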

[2] = tested on: HBV replication in HepAD38 cells; experiment: Anti-HBV activity in HepAD38 cells, extracellular HBV DNA by QPCR; assay type: cell-based, HBV (genotype D, serotype ayw); conditions: Hepatitis B virus, HePAD38, 168 h, read-out: Anti-HBV EC50, HepAD38 cells, extracellular HBV DNA by QPCR, 7 days of incubation
Method in brief: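 Seven-day compound exposure (30 μM down to 10 nM, half-log steps) after tetracycline withdrawal induced HBV replication in HepAD38 cells. Extracellular viral DNA measured by QPCR (copies/mL via standard curve), normalised to DMSO wells; EC50 from 4-parameter non-linear regression.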

## Cc1cc(NC(=O)c2cc(C(F)(F)C(=O)N3CCC(O)CC3)ccc2F)ccc1F [Example 90, 5-(1,1-difluoro-2-(4-hydroxypiperidin-1-yl)-2-oxoethyl)-2-fluoro-N-(4-fluoro-3-methylphenyl)benzamide]
[1]
  CC50 at 7 days: 5 to 30 µM
[2]
  EC50: < 5 µM

## COc1ccc(C(F)(F)C(=O)N2CCC(O)CC2)cc1C(=O)Nc1ccc(F)c(C)c1 [Example 91, 5-(1,1-difluoro-2-(4-hydroxypiperidin-1-yl)-2-oxoethyl)-N-(4-fluoro-3-methylphenyl)-2-methoxybenzamide]
[1]
  CC50 at 7 days: > 30 µM
[2]
  EC50: > 30 µM

## Cc1cc(NC(=O)c2cccc(C(F)(F)C(=O)N3CCC(O)CC3)c2F)ccc1F [Example 92, 3-(1,1-difluoro-2-(4-hydroxypiperidin-1-yl)-2-oxoethyl)-2-fluoro-N-(4-fluoro-3-methylphenyl)benzamide]
[1]
  CC50 at 7 days: 5 to 30 µM
[2]
  EC50: < 5 µM

## Cc1cc(NC(=O)c2cc(F)cc(C(F)(F)C(=O)N3CCC(O)CC3)c2)ccc1F [Example 93, 3-(1,1-difluoro-2-(4-hydroxypiperidin-1-yl)-2-oxoethyl)-5-fluoro-N-(4-fluoro-3-methylphenyl)benzamide]
[1]
  CC50 at 7 days: 5 to 30 µM
[2]
  EC50: < 5 µM

## COc1ccc(C(=O)Nc2ccc(F)c(C)c2)cc1C(F)(F)C(=O)N1CCC(O)CC1 [Example 94, 3-(1,1-difluoro-2-(4-hydroxypiperidin-1-yl)-2-oxoethyl)-N-(4-fluoro-3-methylphenyl)-4-methoxybenzamide]
[1]
  CC50 at 7 days: > 30 µM
[2]
  EC50: < 5 µM

## Cc1cc(NC(=O)c2cc(C(F)(F)C(=O)N3CCC(O)CC3)ccc2Cl)ccc1F [Example 95, 2-chloro-5-(1,1-difluoro-2-(4-hydroxypiperidin-1-yl)-2-oxoethyl)-N-(4-fluoro-3-methylphenyl)benzamide]
[1]
  CC50 at 7 days: > 30 µM
[2]
  EC50: > 30 µM

## Cc1cc(NC(=O)c2ccn(C)c2C(F)(F)C(=O)N2CCC(O)CC2)ccc1F [Example 96, 2-(1,1-difluoro-2-(4-hydroxypiperidin-1-yl)-2-oxoethyl)-N-(4-fluoro-3-methylphenyl)-1-methyl-1H-pyrrole-3-carboxamide]
[1]
  CC50 at 7 days: > 30 µM
[2]
  EC50: 5 to 30 µM

## Cc1cc(NC(=O)c2cc(C(F)(F)C(=O)N3CCC(O)CC3)n(C)c2)ccc1F [Example 97, 5-(1,1-difluoro-2-(4-hydroxypiperidin-1-yl)-2-oxoethyl)-N-(4-fluoro-3-methylphenyl)-1-methyl-1H-pyrrole-3-carboxamide]
[1]
  CC50 at 7 days: > 30 µM
[2]
  EC50: < 5 µM

## Cc1cc(NC(=O)c2cc(Br)c(C(F)(F)C(=O)N3CCC(O)CC3)n2C)ccc1F [Example 98, 4-bromo-5-(1,1-difluoro-2-(4-hydroxypiperidin-1-yl)-2-oxoethyl)-N-(4-fluoro-3-methylphenyl)-1-methyl-1H-pyrrole-2-carboxamide]
[1]
  CC50 at 7 days: > 30 µM
[2]
  EC50: > 30 µM

## Cc1cc(NC(=O)c2ccc(C(F)(F)C(=O)N3CCC(O)CC3)n2C)ccc1F [Example 99, 5-(1,1-difluoro-2-(4-hydroxypiperidin-1-yl)-2-oxoethyl)-N-(4-fluoro-3-methylphenyl)-1-methyl-1H-pyrrole-2-carboxamide]
[1]
  CC50 at 7 days: > 30 µM
[2]
  EC50: > 30 µM

## Cc1cc(NC(=O)c2cc(C(F)(F)C(=O)NC(C)(C)C)n(C)c2)ccc1F [Example 100, 5-(2-(tert-butylamino)-1,1-difluoro-2-oxoethyl)-N-(4-fluoro-3-methylphenyl)-1-methyl-1H-pyrrole-3-carboxamide]
[1]
  CC50 at 7 days: > 30 µM
[2]
  EC50: < 5 µM

## Cc1cc(NC(=O)c2ccn(C)c2C(F)(F)C(=O)NC(C)(C)C)ccc1F [Example 101, 2-(2-(tert-butylamino)-1,1-difluoro-2-oxoethyl)-N-(4-fluoro-3-methylphenyl)-1-methyl-1H-pyrrole-3-carboxamide]
[1]
  CC50 at 7 days: > 30 µM
[2]
  EC50: < 5 µM

## Cc1cc(NC(=O)c2cc(C(F)(F)C(=O)NC(C)C)n(C)c2)ccc1F [Example 102, 5-(1,1-difluoro-2-(isopropylamino)-2-oxoethyl)-N-(4-fluoro-3-methylphenyl)-1-methyl-1H-pyrrole-3-carboxamide]
[1]
  CC50 at 7 days: > 30 µM
[2]
  EC50: < 5 µM

## CC[C@H](C)NC(=O)C(F)(F)c1cc(C(=O)Nc2ccc(F)c(C)c2)cn1C [Example 103, (S)-5-(2-(sec-butylamino)-1,1-difluoro-2-oxoethyl)-N-(4-fluoro-3-methylphenyl)-1-methyl-1H-pyrrole-3-carboxamide]
[1]
  CC50 at 7 days: 5 to 30 µM
[2]
  EC50: < 5 µM

## Cc1cc(NC(=O)c2cc(C(F)(F)C(=O)NC(C)(C)CO)n(C)c2)ccc1F [Example 104, 5-(1,1-difluoro-2-((1-hydroxy-2-methylpropan-2-yl)amino)-2-oxoethyl)-N-(4-fluoro-3-methylphenyl)-1-methyl-1H-pyrrole-3-carboxamide]
[1]
  CC50 at 7 days: > 30 µM
[2]
  EC50: < 5 µM

## Cc1cc(NC(=O)c2ccn(C)c2C(F)(F)C(=O)NC(C)(C)CO)ccc1F [Example 105, 2-(1,1-difluoro-2-((1-hydroxy-2-methylpropan-2-yl)amino)-2-oxoethyl)-N-(4-fluoro-3-methylphenyl)-1-methyl-1H-pyrrole-3-carboxamide]
[1]
  CC50 at 7 days: > 30 µM
[2]
  EC50: 5 to 30 µM

## Cc1cc(NC(=O)c2cc(C(F)(F)C(=O)NC(C)(C)C)n(C)c2C)ccc1F [Example 106, 5-(2-(tert-butylamino)-1,1-difluoro-2-oxoethyl)-N-(4-fluoro-3-methylphenyl)-1,2-dimethyl-1H-pyrrole-3-carboxamide]
[1]
  CC50 at 7 days: 5 to 30 µM
[2]
  EC50: < 5 µM

## Cc1cc(NC(=O)c2c(C)c(C(F)(F)C(=O)NC(C)(C)C)n(C)c2C)ccc1F [Example 107, 5-(2-(tert-butylamino)-1,1-difluoro-2-oxoethyl)-N-(4-fluoro-3-methylphenyl)-1,2,4-trimethyl-1H-pyrrole-3-carboxamide]
[1]
  CC50 at 7 days: > 30 µM
[2]
  EC50: < 5 µM

## CC[C@H](C)NC(=O)C(F)(F)c1c(C(=O)Nc2ccc(F)c(C)c2)ccn1C [Example 108, (S)-2-(2-(sec-butylamino)-1,1-difluoro-2-oxoethyl)-N-(4-fluoro-3-methylphenyl)-1-methyl-1H-pyrrole-3-carboxamide]
[1]
  CC50 at 7 days: > 30 µM
[2]
  EC50: < 5 µM

## CC[C@@H](C)NC(=O)C(F)(F)c1cc(C(=O)Nc2ccc(F)c(C)c2)cn1C [Example 109, (R)-5-(2-(sec-butylamino)-1,1-difluoro-2-oxoethyl)-N-(4-fluoro-3-methylphenyl)-1-methyl-1H-pyrrole-3-carboxamide]
[1]
  CC50 at 7 days: > 30 µM
[2]
  EC50: < 5 µM

## CC[C@@H](C)NC(=O)C(F)(F)c1c(C(=O)Nc2ccc(F)c(C)c2)ccn1C [Example 110, (R)-2-(2-(sec-butylamino)-1,1-difluoro-2-oxoethyl)-N-(4-fluoro-3-methylphenyl)-1-methyl-1H-pyrrole-3-carboxamide]
[1]
  CC50 at 7 days: > 30 µM
[2]
  EC50: > 30 µM

## Cc1cc(NC(=O)c2cc(C(F)(F)C(=O)NC(C)C(F)(F)F)n(C)c2)ccc1F (centres unmarked) [Example 111, 5-(1,1-difluoro-2-oxo-2-((1,1,1-trifluoropropan-2-yl)amino)ethyl)-N-(4-fluoro-3-methylphenyl)-1-methyl-1H-pyrrole-3-carboxamide]
[1]
  CC50 at 7 days: > 30 µM
[2]
  EC50: < 5 µM
